{"source": "ChEMBL document CHEMBL2040842", "about": "“Synthesis and Biochemical Testing of 3-(Carboxyphenylethyl)imidazo[2,1-f][1,2,4]triazines as Inhibitors of AMP Deaminase” (ACS Med Chem Lett, 2010)", "key": {"[1]": {"experiment": "Inhibition of porcine heart AMPD3", "parameters": "species or system Sus scrofa"}, "[2]": {"experiment": "Inhibition of human recombinant AMPD1 deltaM54 mutant expressed in Sf9 cells"}, "[3]": {"experiment": "Inhibition of human recombinant AMPD2-1A/2 expressed in Sf9 cells"}, "AMP deaminase 3": {"target": "T1, AMP deaminase 3 (Homo sapiens, UniProt Q01432)", "T1 sequence (Q01432 whole entry)": "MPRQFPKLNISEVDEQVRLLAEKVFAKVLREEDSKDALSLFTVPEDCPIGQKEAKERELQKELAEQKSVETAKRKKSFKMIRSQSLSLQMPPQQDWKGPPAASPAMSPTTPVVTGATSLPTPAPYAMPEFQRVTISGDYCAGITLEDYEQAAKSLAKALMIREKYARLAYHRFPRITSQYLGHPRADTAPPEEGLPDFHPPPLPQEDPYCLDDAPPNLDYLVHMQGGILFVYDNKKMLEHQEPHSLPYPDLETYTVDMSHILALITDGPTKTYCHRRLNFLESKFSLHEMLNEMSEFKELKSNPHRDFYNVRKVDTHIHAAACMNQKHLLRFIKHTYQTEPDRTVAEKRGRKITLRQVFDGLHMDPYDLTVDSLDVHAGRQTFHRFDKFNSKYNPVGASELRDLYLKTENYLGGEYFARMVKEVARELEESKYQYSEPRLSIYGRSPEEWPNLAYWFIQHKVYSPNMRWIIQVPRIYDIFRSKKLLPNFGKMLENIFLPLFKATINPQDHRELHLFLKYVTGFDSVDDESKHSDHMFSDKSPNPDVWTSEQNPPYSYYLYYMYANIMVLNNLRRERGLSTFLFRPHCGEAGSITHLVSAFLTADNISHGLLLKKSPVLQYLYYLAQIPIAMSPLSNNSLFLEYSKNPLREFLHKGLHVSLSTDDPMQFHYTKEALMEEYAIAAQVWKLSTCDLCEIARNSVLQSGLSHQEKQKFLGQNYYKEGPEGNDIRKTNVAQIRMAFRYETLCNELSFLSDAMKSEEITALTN", "experiment": "Inhibition of human recombinant AMPD3-1b expressed in Sf9 cells"}, "AMP deaminase": {"target": "AMP deaminase (Arabidopsis thaliana, UniProt O80452, V211M)", "sequence (O80452 whole entry V211M)": "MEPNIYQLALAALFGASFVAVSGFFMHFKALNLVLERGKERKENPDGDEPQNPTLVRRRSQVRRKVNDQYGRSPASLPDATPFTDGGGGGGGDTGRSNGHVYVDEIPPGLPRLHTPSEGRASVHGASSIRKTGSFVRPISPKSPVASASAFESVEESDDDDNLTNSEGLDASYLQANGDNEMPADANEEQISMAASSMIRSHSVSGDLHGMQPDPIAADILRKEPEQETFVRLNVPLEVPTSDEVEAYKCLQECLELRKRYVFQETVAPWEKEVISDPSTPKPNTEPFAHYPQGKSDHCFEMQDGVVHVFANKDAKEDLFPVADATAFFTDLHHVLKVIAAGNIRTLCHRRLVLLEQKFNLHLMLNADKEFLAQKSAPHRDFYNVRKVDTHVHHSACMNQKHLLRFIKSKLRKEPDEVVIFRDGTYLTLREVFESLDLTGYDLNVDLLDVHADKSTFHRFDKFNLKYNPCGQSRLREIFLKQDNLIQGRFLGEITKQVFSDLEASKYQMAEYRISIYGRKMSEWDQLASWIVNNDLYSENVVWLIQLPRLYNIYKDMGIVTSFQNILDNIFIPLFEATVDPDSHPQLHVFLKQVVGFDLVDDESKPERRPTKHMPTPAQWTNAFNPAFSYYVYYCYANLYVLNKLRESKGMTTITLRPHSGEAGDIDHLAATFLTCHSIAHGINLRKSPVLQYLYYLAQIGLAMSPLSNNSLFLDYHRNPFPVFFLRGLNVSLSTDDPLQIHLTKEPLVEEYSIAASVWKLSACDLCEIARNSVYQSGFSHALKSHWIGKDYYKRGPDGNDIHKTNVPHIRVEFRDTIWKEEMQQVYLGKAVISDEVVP", "experiment": "Inhibition of Arabidopsis recombinant AMPD deltaV211M mutant expressed in Sf9 cells"}, "AMP deaminase 1": {"target": "T2, AMP deaminase 1 (Homo sapiens, UniProt P23109)", "T2 sequence (P23109 whole entry)": "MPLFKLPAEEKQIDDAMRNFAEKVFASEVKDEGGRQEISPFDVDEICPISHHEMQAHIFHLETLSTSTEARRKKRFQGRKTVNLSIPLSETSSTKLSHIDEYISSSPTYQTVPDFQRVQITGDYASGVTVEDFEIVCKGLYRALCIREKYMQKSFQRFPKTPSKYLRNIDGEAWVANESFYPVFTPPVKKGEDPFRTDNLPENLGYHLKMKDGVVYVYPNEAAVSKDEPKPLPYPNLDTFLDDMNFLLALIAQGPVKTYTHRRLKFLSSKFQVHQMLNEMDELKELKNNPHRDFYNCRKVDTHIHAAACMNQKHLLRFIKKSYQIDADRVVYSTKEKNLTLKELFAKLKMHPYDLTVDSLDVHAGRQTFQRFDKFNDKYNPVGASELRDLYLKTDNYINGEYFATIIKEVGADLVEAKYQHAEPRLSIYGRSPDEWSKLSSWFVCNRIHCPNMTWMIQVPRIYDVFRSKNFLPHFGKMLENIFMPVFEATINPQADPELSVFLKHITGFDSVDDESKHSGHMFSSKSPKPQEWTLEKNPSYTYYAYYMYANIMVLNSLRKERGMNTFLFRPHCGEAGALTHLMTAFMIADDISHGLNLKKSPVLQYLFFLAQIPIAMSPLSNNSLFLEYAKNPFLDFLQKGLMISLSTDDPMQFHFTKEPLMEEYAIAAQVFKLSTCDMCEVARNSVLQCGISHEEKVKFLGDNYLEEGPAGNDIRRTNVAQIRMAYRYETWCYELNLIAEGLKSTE", "experiment": "Inhibition of human skeletal muscle AMPD1", "parameters": "species or system Muscle tissue"}, "[4]": {"experiment": "Inhibition of AMP deaminase"}}, "data": [{"molecule": "O=C(O)c1cccc(CCn2cnc3c2NC=NCC3O)c1", "note": "(stereo unspecified)", "values": [{"measurement": "Ki", "setting": "[1]", "value": 0.51, "unit": "µM"}]}, {"molecule": "O=C(O)c1cc2c(c(CCc3cnc4cncnn34)c1)CCCC2", "values": [{"measurement": "IC50", "setting": "[2]", "value": 5.7, "unit": "µM"}, {"measurement": "IC50", "setting": "[3]", "value": 2.3, "unit": "µM"}, {"measurement": "IC50", "setting": "AMP deaminase 3", "value": 0.9, "unit": "µM"}, {"measurement": "IC50", "setting": "AMP deaminase", "value": 200, "unit": "µM"}]}, {"molecule": "O=C(O)c1cc(CCn2cnc3c2N=CNCC3O)c2c(c1Br)CCCC2", "note": "(stereo unspecified)", "values": [{"measurement": "IC50", "setting": "AMP deaminase 1", "value": 0.5, "unit": "µM"}]}, {"molecule": "O=P(O)(O)OC[C@H]1O[C@@H](n2cnc3c2N=CNC[C@H]3O)[C@H](O)[C@@H]1O", "values": [{"measurement": "Ki", "setting": "[4]", "value": 5.5, "unit": "pM"}]}, {"molecule": "O=C(O)c1cccc(CCc2cnc3cncnn23)c1", "values": [{"measurement": "IC50", "setting": "[2]", "value": 310, "unit": "µM"}, {"measurement": "IC50", "setting": "[3]", "value": 100, "unit": "µM"}, {"measurement": "IC50", "setting": "AMP deaminase 3", "value": 370, "unit": "µM"}, {"measurement": "IC50", "setting": "AMP deaminase", "value": 1400, "unit": "µM"}]}]}
